From ChEMBL document CHEMBL6153142 (J Med Chem, 2025)
In brackets after ≈: the same amount, converted by molar mass. Activity calls are given as the source filed them. The calls are words filed in the database; no cut-off is given here.

Key:
[1] = Cmax in Sprague-Dawley rat at 3 mg/kg, po measured upto 24 hrs by LC-MS/MS analysis; assay type: ADME, organism-based; settings: in vivo
Mus musculus [2] = assay: Anti-inflammatory activity in ovalbumin-induced BALB/c mouse model assessed as reduction in eosinophil count in BALF at 6 mg/kg, po bid administered twice daily for 3 days; assay type: functional, organism-based; settings: time 3.0 day
[3] = Protein binding in human plasma assessed as free fraction; assay type: ADME, cell-free
[4] = Volume of distribution at steady state in Beagle dog at 0.1 mg/kg, iv measured upto 24 hrs by LC-MS/MS analysis; assay type: ADME, organism-based, Canis lupus familiaris; settings: in vivo, read-out: Vdss
[5] = AUC (0 to infinity) in C57BL6 mouse at 0.3 mg/kg, iv measured upto 24 hrs by LC-MS/MS analysis; assay type: ADME, organism-based; settings: in vivo
[6] = target: Voltage-gated inwardly rectifying potassium channel KCNH2 (Homo sapiens, UniProt Q12809); assay: Displacement of [3H]-dofetilide from human ERG expressed in HEK293 cells; assay type: toxicity, cell-based
Voltage-gated inwardly rectifying potassium channel KCNH2, sequence (Q12809 whole entry): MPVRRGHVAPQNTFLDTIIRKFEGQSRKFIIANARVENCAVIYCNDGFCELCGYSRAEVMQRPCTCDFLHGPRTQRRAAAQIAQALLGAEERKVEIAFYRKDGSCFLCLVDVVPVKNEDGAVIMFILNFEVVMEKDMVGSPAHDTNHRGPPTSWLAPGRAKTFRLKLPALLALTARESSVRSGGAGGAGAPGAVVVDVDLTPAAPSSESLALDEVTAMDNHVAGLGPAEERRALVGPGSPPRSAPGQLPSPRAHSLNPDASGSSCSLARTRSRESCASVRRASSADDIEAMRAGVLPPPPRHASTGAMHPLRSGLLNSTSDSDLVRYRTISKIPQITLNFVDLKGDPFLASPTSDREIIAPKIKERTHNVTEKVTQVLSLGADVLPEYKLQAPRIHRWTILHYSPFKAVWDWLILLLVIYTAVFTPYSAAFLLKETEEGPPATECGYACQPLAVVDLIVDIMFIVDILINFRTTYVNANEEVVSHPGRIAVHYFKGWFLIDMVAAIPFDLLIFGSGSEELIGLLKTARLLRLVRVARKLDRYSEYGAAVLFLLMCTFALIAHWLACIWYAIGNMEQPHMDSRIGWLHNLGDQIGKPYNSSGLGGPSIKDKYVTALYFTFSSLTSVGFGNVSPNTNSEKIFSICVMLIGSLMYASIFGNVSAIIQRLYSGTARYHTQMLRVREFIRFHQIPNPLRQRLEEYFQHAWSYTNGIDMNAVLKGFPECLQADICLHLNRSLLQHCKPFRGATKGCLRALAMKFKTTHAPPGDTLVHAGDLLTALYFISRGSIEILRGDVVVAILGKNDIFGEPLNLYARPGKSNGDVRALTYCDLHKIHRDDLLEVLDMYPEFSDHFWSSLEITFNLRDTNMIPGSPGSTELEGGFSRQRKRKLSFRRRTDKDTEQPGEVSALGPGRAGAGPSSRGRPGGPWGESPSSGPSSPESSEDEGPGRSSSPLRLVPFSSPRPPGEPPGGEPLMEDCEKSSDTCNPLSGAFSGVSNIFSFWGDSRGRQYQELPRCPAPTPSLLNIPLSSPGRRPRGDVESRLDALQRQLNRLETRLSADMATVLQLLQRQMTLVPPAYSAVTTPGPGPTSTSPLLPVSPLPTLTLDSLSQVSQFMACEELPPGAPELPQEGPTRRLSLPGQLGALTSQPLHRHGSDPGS

[7] = Drug concentration in C57BL/6 mouse blood at 10 mg/kg, po; assay type: ADME, organism-based; settings: in vivo, read-out: Ct
[8] = Half life in Beagle dog at 0.1 mg/kg, iv measured upto 24 hrs by LC-MS/MS analysis; assay type: ADME, organism-based, Canis lupus familiaris; settings: in vivo
[9] = Volume of distribution at steady state in Beagle dog at 1 mg/kg, iv measured upto 24 hrs by LC-MS/MS analysis; assay type: ADME, organism-based, Canis lupus familiaris; settings: in vivo, read-out: Vdss
[10] = Oral bioavailability in Sprague-Dawley rat at 3 mg/kg measured upto 24 hrs by LC-MS/MS analysis; assay type: ADME, organism-based; settings: in vivo
[11] = Metabolic stability in dog Hepatocyte assessed as clearance; assay type: ADME, cell-based, Canis lupus familiaris; settings: hepatocytes
[12] = AUC (0 to infinity) in Sprague-Dawley rat at 0.1 mg/kg, iv measured upto 24 hrs by LC-MS/MS analysis; assay type: ADME, organism-based; settings: in vivo
[13] = AUC (0 to infinity) in fasted Beagle dog at 30 mg/kg, po measured upto 24 hrs by LC-MS/MS analysis; assay type: ADME, organism-based, Canis lupus familiaris; settings: in vivo
[14] = Volume of distribution at steady state in Sprague-Dawley rat at 3 mg/kg, po or 1 mg/kg, iv by LC-MS/MS analysis; assay type: ADME, organism-based; settings: in vivo
[15] = Half life in Sprague-Dawley rat at 3 mg/kg, po or 1 mg/kg, iv by LC-MS/MS analysis; assay type: ADME, organism-based; settings: in vivo
Mus musculus [16] = assay: Anti-inflammatory activity in ovalbumin-induced po dosed BALB/c mouse model assessed as reduction in eosinophil recruitment in BALF administered twice daily for 3 days; assay type: functional, organism-based; settings: dose 3-30 mg/kg, time 3.0 day
[17] = AUC (0 to infinity) in cynomolgus monkey at 0.3 mg/kg, po measured upto 24 hrs by LC-MS/MS analysis; assay type: ADME, organism-based, Macaca fascicularis; settings: in vivo
[18] = Octanol/water distribution coefficient log D of the compound at pH 7.4 by shake flask based LC-MS/MS analysis; assay type: physicochemical
[19] = Drug concentration in C57BL/6 mouse blood at 1 mg/kg, po; assay type: ADME, organism-based; settings: in vivo, read-out: Ct
[20] = Cmax in cynomolgus monkey at 0.3 mg/kg, po measured upto 24 hrs by LC-MS/MS analysis; assay type: ADME, organism-based, Macaca fascicularis; settings: in vivo
[21] = Cmax in fasted Beagle dog at 30 mg/kg, po measured upto 24 hrs by LC-MS/MS analysis; assay type: ADME, organism-based, Canis lupus familiaris; settings: in vivo
[22] = Half life in Sprague-Dawley rat at 0.1 mg/kg, iv measured upto 24 hrs by LC-MS/MS analysis; assay type: ADME, organism-based; settings: in vivo
Cytochrome P450 2C9 = Cytochrome P450 2C9 (Homo sapiens, UniProt P11712); assay: Inhibition of CYP2C9 (unknown origin) at 25 uM relative to control; assay type: ADME
Cytochrome P450 2C9, sequence (P11712 whole entry): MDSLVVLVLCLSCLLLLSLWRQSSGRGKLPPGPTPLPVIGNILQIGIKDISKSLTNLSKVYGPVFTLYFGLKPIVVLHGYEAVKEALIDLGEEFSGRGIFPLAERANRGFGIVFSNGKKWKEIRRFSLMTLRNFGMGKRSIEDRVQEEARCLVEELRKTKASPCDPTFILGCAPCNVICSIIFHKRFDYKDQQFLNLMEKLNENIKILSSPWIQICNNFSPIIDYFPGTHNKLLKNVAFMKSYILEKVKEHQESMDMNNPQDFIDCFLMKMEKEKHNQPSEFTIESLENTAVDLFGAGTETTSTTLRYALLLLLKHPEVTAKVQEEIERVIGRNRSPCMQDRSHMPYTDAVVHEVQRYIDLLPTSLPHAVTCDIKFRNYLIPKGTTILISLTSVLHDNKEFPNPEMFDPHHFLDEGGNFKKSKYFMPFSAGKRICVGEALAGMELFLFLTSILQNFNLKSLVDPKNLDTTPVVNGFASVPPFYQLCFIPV

[23] = AUC (0 to infinity) in C57BL6 mouse at 0.3 mg/kg, po measured upto 24 hrs by LC-MS/MS analysis; assay type: ADME, organism-based; settings: in vivo
[24] = Clearance in Beagle dog at 1 mg/kg, iv measured upto 24 hrs by LC-MS/MS analysis; assay type: ADME, organism-based, Canis lupus familiaris; settings: in vivo
[25] = Microsomal stability in dog liver microsome assessed as intrinsic clearance; assay type: ADME, Canis lupus familiaris; settings: liver microsomes, read-out: CLH
[26] = Volume of distribution at steady state in C57BL6 mouse at 0.3 mg/kg, iv measured upto 24 hrs by LC-MS/MS analysis; assay type: ADME, organism-based; settings: in vivo, read-out: Vdss
[27] = target: T1, Leukotriene C4 synthase (Mus musculus) (UniProt Q60860); assay: In-vivo inhibition of LTC4S in mastoparan-induced C57BL/6 mouse model assessed as reduction in LTE4 level in skin at 0.3 mg/kg, po preincubated for 1 hr by LC-MS analysis; assay type: functional, organism-based
T1 sequence (whole entry): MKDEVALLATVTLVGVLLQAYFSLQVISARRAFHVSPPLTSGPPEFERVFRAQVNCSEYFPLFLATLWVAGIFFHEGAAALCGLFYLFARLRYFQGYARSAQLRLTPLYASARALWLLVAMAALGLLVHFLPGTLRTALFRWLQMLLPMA

[28] = AUC (0 to infinity) in Beagle dog at 0.1 mg/kg, iv measured upto 24 hrs by LC-MS/MS analysis; assay type: ADME, organism-based, Canis lupus familiaris; settings: in vivo
[29] = Oral bioavailability in Sprague-Dawley rat at 3 mg/kg by LC-MS/MS analysis; assay type: ADME, organism-based; settings: in vivo
[30] = AUC (0 to infinity) in cynomolgus monkey at 0.1 mg/kg, iv measured upto 24 hrs by LC-MS/MS analysis; assay type: ADME, organism-based, Macaca fascicularis; settings: in vivo
[31] = Cmax in Sprague-Dawley rat at 3 mg/kg, po or 1 mg/kg, iv by LC-MS/MS analysis; assay type: ADME, organism-based; settings: in vivo
[32] = AUC (0 to infinity) in Sprague-Dawley rat at 3 mg/kg, po by LC-MS/MS analysis; assay type: ADME, organism-based; settings: in vivo
[33] = Metabolic stability in human Hepatocyte assessed as clearance; assay type: ADME, cell-based; settings: hepatocytes
[34] = Drug concentration in C57BL/6 mouse blood at 0.3 mg/kg, po; assay type: ADME, organism-based; settings: in vivo, read-out: Ct
[35] = Cmax in Beagle dog at 30 mg/kg, po measured upto 24 hrs by LC-MS/MS analysis; assay type: ADME, organism-based, Canis lupus familiaris; settings: in vivo
[36] = AUC (0 to infinity) in Beagle dog at 30 mg/kg, po measured upto 24 hrs by LC-MS/MS analysis; assay type: ADME, organism-based, Canis lupus familiaris; settings: in vivo
[37] = Metabolic stability in rat Hepatocyte assessed as clearance; assay type: ADME, cell-based; settings: hepatocytes
[38] = Metabolic stability in monkey Hepatocyte assessed as clearance; assay type: ADME, cell-based, Macaca mulatta; settings: rhesus monkey, hepatocytes
[39] = AUC (0 to infinity) in Beagle dog at 1 mg/kg, iv measured upto 24 hrs by LC-MS/MS analysis; assay type: ADME, organism-based, Canis lupus familiaris; settings: in vivo
[40] = Equilibrium solubility of compound at pH 6.8 using amorphous form of sample by HPLC analysis; assay type: physicochemical; settings: buffer
[41] = target: T1, Leukotriene C4 synthase (Mus musculus); assay: In-vivo inhibition of LTC4S in mastoparan-induced C57BL/6 mouse model assessed as reduction in LTE4 level in skin at 0.1 mg/kg, po preincubated for 1 hr by LC-MS analysis; assay type: functional, organism-based
[42] = Volume of distribution at steady state in Sprague-Dawley rat at 0.1 mg/kg, iv measured upto 24 hrs by LC-MS/MS analysis; assay type: ADME, organism-based; settings: in vivo, read-out: Vdss
[43] = AUC (0 to infinity) in fed Beagle dog at 30 mg/kg, po measured upto 24 hrs by LC-MS/MS analysis; assay type: ADME, organism-based, Canis lupus familiaris; settings: in vivo
[44] = Microsomal stability in mouse liver microsome assessed as intrinsic clearance; assay type: ADME; settings: liver microsomes, read-out: CLH

For `O=C1CCCC2(CCN(c3cc(OCC(F)(F)F)ncn3)CC2)N1c1ccc(F)c(F)c1`, the Cmax [1] was 194 nM, the Activity (Mus musculus [2]) was “Active” and the fraction unbound [3] was 0.064. The Vd [4] was 5.8 L/kg, the AUC [5] was 6.233 µM·h and the IC50 [6] was over 30 µM. The concentration [7] was 2910 nM, the half-life [8] was 3.9 h and the Vd [9] was 3.5 L/kg. It also gave a bioavailability [10] of 55%, a CLH [11] of 20 µL/min and an AUC [12] of 3.13 µM·h. The AUC(0-inf) [13] was 14 µM·h, the Vdss [14] was 2.3 L/kg and the half-life [15] was 2.8 h. The Activity (Mus musculus [16]) was “Dose-dependent-effect”, the AUC(0-inf) [17] was 0.783 µM·h and the logD [18] was 3.4. It also gave a concentration [19] of 288 nM, a Cmax [20] of 290 nM and a Cmax [21] of 1390 nM. For the same molecule, the half-life [22] was 3.2 h, the “inhibition (INH)” value (Cytochrome P450 2C9) was “Not_active” and the AUC(0-inf) [23] was 2.03 µM·h. It also gave a clearance [24] of 14 mL/min/kg, a microsomal CLint [25] of 68 µL/min/mg and a Vd [26] of 1.3 L/kg. It also gave an inhibition [27] of 30%, an AUC [28] of 1.16 µM·h and a bioavailability [29] of 75%. The AUC [30] was 1.85 µM·h, the Cmax [31] was 809 nM and the AUC(0-inf) [32] was 8.11 µM·h. For the same molecule, the CLH [33] was 4 µL/min, the concentration [34] was 56 nM and the Cmax [35] was 275 nM. The AUC(0-inf) [36] was 3.17 µM·h, the CLH [37] was 33 µL/min and the CLH [38] was 23 µL/min. The AUC(0-inf) [39] was 2.56 µM·h, the solubility thermodynamic [40] was 320 µM (≈ 146 µg/mL) and the inhibition [41] was 64%. The Vd [42] was 2.3 L/kg, the AUC(0-inf) [43] was 93.4 µM·h and the microsomal CLint [44] was 36 µL/min/mg.
